According to US11819576B2, “Process for preparing nano-or microparticles comprising a carrier-polymer and one or more biologically active ingredients” (Evonik Operations GmbH, priority 2019, dated 2023):
Converted amounts (≈) assume the structure as drawn.

Legend:
physchem = conditions: 22 °C, organic solvent or mixture, thermodynamic from solid, Solubility in mg/ml
Description: 100 μl n-butanol was added and the dispersion was stirred at ˜300 to 500 rpm by a magnetic stirrer at 21-23° C. n-Butanol was added 10 μl wise.
100 μl water saturated n-butanol (achieved from example 4) was added and the dispersion was stirred at ˜300 to 500 rpm by a magnetic stirrer at 21-23° C. n-Butanol was added 10 μl wise.
100 μl 25% aqueous NaCl solution saturated n-butanol (achieved from example 6) was added and the dispersion was stirred at ˜300 to 500 rpm by a magnetic stirrer at 21-23° C. n-Butanol was added 10 μl wise.
31.35 mg efavirenz (Angene Intemational Limited, China) was weighed into a 10 ml glass vial containing a 1 cm magnetic bar. 50 μl n-butanol was added and the dispersion was stirred at ˜300 to 500 rpm by a magnetic stirrer at 21-23° C. n-Butanol was added 10 μl wise.
30.57 mg efavirenz was weighed into a 10 ml glass vial containing a 1 cm magnetic bar. 50 μl water saturated n-butanol (achieved from example 4) was added and the dispersion was stirred at ˜300 to 500 rpm by a magnetic stirrer at 21-23° C. Water saturated n-butanol was added 10 μl wise till 250 μl. After 250 μl, 25 μl wise addition was used.
31.35 mg efavirenz was weighed into a 10 ml glass vial containing a 1 cm magnetic bar. 50 μl 25% aqueous NaCl solution saturated n-butanol (achieved from example 6) was added and the dispersion was stirred at ˜300 to 500 rpm by a magnetic stirrer at 21-23° C. […]

[1] = Telmisartan release profile, dissolution test using USP II dissolution tester, acetate buffer pH 4.0, 2 h; format: physicochemical; conditions: acetate buffer pH 4.0, USP II
Description: FIG. 2), Telmisartan release profile was analyzed by a dissolution test using a USP II dissolution tester (ERWEKA GmbH, Langen, Germany) at pH 4.0 acetate buffer for 2 h (shown in […]

| Compound | solubility (physchem) [mg/mL] | Release of Telmisartan ([1]; time 0 min) [%] | Release of Telmisartan ([1]; time 5 min) [%] | Release of Telmisartan ([1]; time 10 min) [%] | Release of Telmisartan ([1]; time 15 min) [%] | Release of Telmisartan ([1]; time 30 min) [%] | Release of Telmisartan ([1]; time 45 min) [%] | Release of Telmisartan ([1]; time 60 min) [%] | Release of Telmisartan ([1]; time 90 min) [%] | Release of Telmisartan ([1]; time 120 min) [%] |
| --- | --- | --- | --- | --- | --- | --- | --- | --- | --- | --- |
| Cc1ccc(-c2cc(C(F)(F)F)nn2-c2ccc(S(N)(=O)=O)cc2)cc1 [Celecoxib, celecoxib] | 22 (≈ 57.7 mM) |  |  |  |  |  |  |  |  |  |
| CCCc1nc2c(C)cc(-c3nc4ccccc4n3C)cc2n1Cc1ccc(-c2ccccc2C(=O)O)cc1 [Telmisartan pure active, Telmisartan] |  | 0.040 | 0.081 | 0.148 | 0.185 | 0.240 | 0.613 | 0.310 | 0.671 | 0.343 |
